Assay results: US20130324582A1, “METHODS AND COMPOSITIONS FOR REDUCING FUNGAL INFESTATION AND IMPROVING GRASS QUALITY” (BAYER CROPSCIENCE LP, priority 2012, published 2013)

System: Dollar Spot
Assay: Dollar Spot infestation on Bentgrass Green (field application by knapsack sprayer)
Format: in vivo, Sclerotinia homoeocarpa
Conditions: applied at 0, 6, 14 days
Description: Example 1 sets forth the Dollar Spot infestation on Bentgrass Green.
A suspension concentrate composition of Compound I-1 as defined herein with and without the addition of Synergen® KN was applied to Bentgrass Green at 0, 6, and 14 days using a knapsack sprayer. Synergen® KN contains a blend of phosphate and ethoxylated alcohol compounds, such as a blend of poly(oxy-1,2-ethanediyl), α-isotridecyl-ω-hydroxy-, phosphate and ethoxylated C12-C16 alcohols.
In Table 1, untreated Bentgrass Green (1) was compared to a composition including Compound I-1 at 440 grams/hectacre (“GA/HA”) (2), a composition including Compound I-1 at 440 GA/HA+Synergen® KN at 1% by volume (3), a composition including Compound I-1 at 880 GA/HA (4), a composition including Compound I-1 at 880 GA/HA+Synergen® KN at 1% by volume (5), a composition including Compound I-1 at 1320 GA/HA (6), and composition including a Compound I-1 at 1320 GA/HA+Synergen® KN at 1% by volume (7). As set forth in Table 1, ratings were evaluated at −1, 6, 13, 22, 28, 35, and 48 days.

Cn1c(=O)c2sc3c(=O)n(C)c(=O)c3sc2c1=O [Compound I-1, 2,6-dimethyl-1H,5H-[1,4]dithiino[2,3-c:5,6-c′]dipyrrole-1,3,5,7(2H,6H)-tetrone]
Percentage of Dollar Spot (440 GA/HA, rating Day 6, adjuvant where present 1% by volume): 7.5% | Percentage of Dollar Spot (440 GA/HA, rating Day 13, adjuvant where present 1% by volume): 10.8% | Percentage of Dollar Spot (440 GA/HA, rating Day 22, adjuvant where present 1% by volume): 12.8% | Percentage of Dollar Spot (440 GA/HA, rating Day 28, adjuvant where present 1% by volume): 14.5% | Percentage of Dollar Spot (440 GA/HA, rating Day 35, adjuvant where present 1% by volume): 19.5% | Percentage of Dollar Spot (440 GA/HA, rating Day 48, adjuvant where present 1% by volume): 22.8% | Percentage of Dollar Spot (440 GA/HA, rating Day −1, adjuvant where present 1% by volume): 8.3% | Percentage of Dollar Spot (880 GA/HA, rating Day 6, adjuvant where present 1% by volume): 7.8% | Percentage of Dollar Spot (880 GA/HA, rating Day 13, adjuvant where present 1% by volume): 10.5% | Percentage of Dollar Spot (880 GA/HA, rating Day 22, adjuvant where present 1% by volume): 11.3% | Percentage of Dollar Spot (880 GA/HA, rating Day 28, adjuvant where present 1% by volume): 12.5% | Percentage of Dollar Spot (880 GA/HA, rating Day 35, adjuvant where present 1% by volume): 17% | Percentage of Dollar Spot (880 GA/HA, rating Day 48, adjuvant where present 1% by volume): 20.8% | Percentage of Dollar Spot (880 GA/HA, rating Day −1, adjuvant where present 1% by volume): 8.3% | Percentage of Dollar Spot (1320 GA/HA, rating Day 6, adjuvant where present 1% by volume): 8.3% | Percentage of Dollar Spot (1320 GA/HA, rating Day 13, adjuvant where present 1% by volume): 10.5% | Percentage of Dollar Spot (1320 GA/HA, rating Day 22, adjuvant where present 1% by volume): 12.8% | Percentage of Dollar Spot (1320 GA/HA, rating Day 28, adjuvant where present 1% by volume): 14.8% | Percentage of Dollar Spot (1320 GA/HA, rating Day 35, adjuvant where present 1% by volume): 17% | Percentage of Dollar Spot (1320 GA/HA, rating Day 48, adjuvant where present 1% by volume): 20% | Percentage of Dollar Spot (1320 GA/HA, rating Day −1, adjuvant where present 1% by volume): 9%
